Experimental data: patent US9150632B2 (Indiana University Research and Technology Corporation, priority 2009, dated 2015)
Read-outs that look alike come from different tables or passages of the source. Non-standard residues stand in square brackets, D forms with d. Residues, ends and D or L forms follow the SMILES beside them. No end group written: not given here. *: point of attachment. Palmitoyl = CCCCCCCCCCCCCCCC(=O)*; Myristoyl = CCCCCCCCCCCCCC(=O)*; Aib = CC(C)(N)C(=O)O

Assays:
glucagon receptor = molecular target: T1, glucagon receptor (Homo sapiens, UniProt P47871); experiment: Functional assay-cAMP synthesis, luciferase reporter in HEK293 cells, glucagon receptor; type: cell-based; conditions: for Glucagon Receptor % relative activity: activity relative to the native hormone at the indicated receptor; for EC50: cAMP induction, in vitro, as in Example 14
T1 construct: expressed in transfected cells; host or cells: HEK293
Description: (§1) Peptide absorbance readings were obtained from UV Absorbance measurements at 280 nm on a Genesys 6 Spectrophotometer (Thermo Electron Corporation). Beer's Law was used to calculate solution concentrations based on the number of tryptophan and tyrosine residues in each analog. At the end of the incubation, 100 μL LucLite luminescence substrate reagent was added to each well, the plate sealed and shaken, and placed into a Wallac Trilux luminescence counter for cAMP detection.
(§2) HEK293 cells were co-transfected with the GcgR or GLP-1R cDNAs and a luciferase reporter gene-linked to a cAMP response element (CRE). […] The plate was incubated for 10 min in the dark and light output was quantified on a MicroBeta1450 liquid scintillation counter (Perkin-Elmer, Wellesley, Mass.).

GIP receptor = molecular target: T2, GIP receptor (Homo sapiens, UniProt P48546); experiment: Functional assay-cAMP synthesis, luciferase reporter in HEK293 cells, GIP receptor; type: cell-based; conditions: for GIP Receptor % relative activity: activity relative to the native hormone at the indicated receptor; for EC50: cAMP induction, in vitro, as in Example 14
T2 construct: expressed in transfected cells; host or cells: HEK293
T2 sequence (P48546 22-466): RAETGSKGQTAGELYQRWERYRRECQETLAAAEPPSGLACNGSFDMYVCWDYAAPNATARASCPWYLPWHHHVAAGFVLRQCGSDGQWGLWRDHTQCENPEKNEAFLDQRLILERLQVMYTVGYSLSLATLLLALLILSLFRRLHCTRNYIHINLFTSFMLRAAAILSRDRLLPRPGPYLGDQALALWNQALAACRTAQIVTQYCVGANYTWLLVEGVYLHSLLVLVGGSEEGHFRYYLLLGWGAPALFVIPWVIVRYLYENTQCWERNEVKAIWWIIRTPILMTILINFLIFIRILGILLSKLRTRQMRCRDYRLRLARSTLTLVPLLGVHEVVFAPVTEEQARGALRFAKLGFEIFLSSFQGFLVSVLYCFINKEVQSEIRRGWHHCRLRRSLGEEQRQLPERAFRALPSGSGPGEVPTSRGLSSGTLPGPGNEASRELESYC

GLP-1 receptor [1] = molecular target: T3, GLP-1 receptor (Homo sapiens, UniProt P43220); conditions: for GLP-1 Receptor % relative activity: activity relative to the native hormone at the indicated receptor
Description: as §1, §2

GLP-1 receptor [2] = molecular target: T3, GLP-1 receptor; experiment: cell-based
Description: as §1, §2

[3] = Table 35, relative to the native hormone

T3 sequence (P43220 24-463, species assumed): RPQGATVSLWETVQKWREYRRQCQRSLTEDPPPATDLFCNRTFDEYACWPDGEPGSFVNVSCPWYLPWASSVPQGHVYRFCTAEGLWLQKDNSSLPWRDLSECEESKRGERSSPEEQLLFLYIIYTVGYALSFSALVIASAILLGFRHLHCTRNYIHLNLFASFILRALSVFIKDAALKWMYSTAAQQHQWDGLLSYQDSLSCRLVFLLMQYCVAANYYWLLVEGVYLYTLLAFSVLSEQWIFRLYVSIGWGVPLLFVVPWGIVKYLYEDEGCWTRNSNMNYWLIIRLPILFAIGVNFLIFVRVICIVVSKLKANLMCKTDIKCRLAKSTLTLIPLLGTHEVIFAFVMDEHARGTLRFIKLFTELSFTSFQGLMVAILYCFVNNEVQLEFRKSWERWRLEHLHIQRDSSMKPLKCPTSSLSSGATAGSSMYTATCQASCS
T1 sequence (P47871 26-477): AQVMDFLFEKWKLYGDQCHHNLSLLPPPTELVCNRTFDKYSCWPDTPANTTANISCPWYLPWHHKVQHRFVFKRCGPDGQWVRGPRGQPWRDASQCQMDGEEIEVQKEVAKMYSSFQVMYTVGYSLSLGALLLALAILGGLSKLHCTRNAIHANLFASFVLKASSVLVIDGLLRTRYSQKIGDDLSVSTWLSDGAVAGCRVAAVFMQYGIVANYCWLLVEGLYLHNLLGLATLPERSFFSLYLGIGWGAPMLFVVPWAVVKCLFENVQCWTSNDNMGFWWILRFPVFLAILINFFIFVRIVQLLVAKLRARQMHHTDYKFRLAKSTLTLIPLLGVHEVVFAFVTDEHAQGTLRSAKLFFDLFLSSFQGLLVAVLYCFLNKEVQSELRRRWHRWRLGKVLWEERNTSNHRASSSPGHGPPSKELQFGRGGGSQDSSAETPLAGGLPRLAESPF

CC[C@H](C)[C@H](NC(=O)[C@H](Cc1ccccc1)NC(=O)[C@H](CCC(=O)O)NC(=O)[C@H](CCCCN)NC(=O)[C@H](C)NC(=O)[C@H](C)NC(=O)[C@H](CCC(N)=O)NC(=O)[C@H](CCC(=O)O)NC(=O)[C@H](CC(=O)O)NC(=O)[C@H](CC(C)C)NC(=O)[C@H](Cc1ccc(O)cc1)NC(=O)[C@H](CCCCN)NC(=O)[C@H](CO)NC(=O)[C@H](Cc1ccc(O)cc1)NC(=O)[C@H](CC(=O)O)NC(=O)[C@H](CO)NC(=O)[C@@H](NC(=O)[C@H](Cc1ccccc1)NC(=O)[C@@H](NC(=O)CNC(=O)[C@H](CCC(N)=O)NC(=O)C(C)(C)NC(=O)[C@@H](N)Cc1c[nH]cn1)[C@@H](C)O)[C@@H](C)O)C(=O)N[C@@H](CS)C(=O)N[C@@H](Cc1c[nH]c2ccccc12)C(=O)N[C@@H](CC(C)C)C(=O)N[C@@H](CCSC)C(=O)N[C@@H](CC(N)=O)C(=O)NCC(=O)NCC(=O)N1CCC[C@H]1C(=O)N[C@@H](CO)C(=O)N[C@@H](CO)C(=O)NCC(=O)N[C@@H](C)C(=O)N1CCC[C@H]1C(=O)N1CCC[C@H]1C(=O)N1CCC[C@H]1C(=O)N[C@@H](CO)C(=O)N[C@@H](CCCCN)C(N)=O [mt-346]
Glucagon Receptor % relative activity (glucagon receptor): 3.70%
EC50 (glucagon receptor): 0.954 nM
GIP Receptor % relative activity (GIP receptor): 0.34%
EC50 (GIP receptor): 0.796 nM
GLP-1 Receptor % relative activity (GLP-1 receptor [1]): 366.67%
EC50 (GLP-1 receptor [2]): 0.0015 nM

CC[C@H](C)[C@H](NC(=O)[C@H](Cc1ccccc1)NC(=O)[C@H](CCC(=O)O)NC(=O)[C@H](CCCCN)NC(=O)[C@H](C)NC(=O)[C@H](C)NC(=O)[C@H](CCC(N)=O)NC(=O)C(C)(C)NC(=O)[C@H](CC(=O)O)NC(=O)[C@H](CC(C)C)NC(=O)[C@H](Cc1ccc(O)cc1)NC(=O)[C@H](CCCCN)NC(=O)[C@H](CO)NC(=O)[C@H](Cc1ccc(O)cc1)NC(=O)[C@H](CC(=O)O)NC(=O)[C@H](CO)NC(=O)[C@@H](NC(=O)[C@H](Cc1ccccc1)NC(=O)[C@@H](NC(=O)CNC(=O)[C@H](CCC(N)=O)NC(=O)C(C)(C)NC(=O)[C@@H](N)Cc1c[nH]cn1)[C@@H](C)O)[C@@H](C)O)C(=O)N[C@@H](CS)C(=O)N[C@@H](Cc1c[nH]c2ccccc12)C(=O)N[C@@H](CC(C)C)C(=O)N[C@@H](CCSC)C(=O)N[C@@H](CC(N)=O)C(=O)NCC(=O)NCC(=O)N1CCC[C@H]1C(=O)N[C@@H](CO)C(=O)N[C@@H](CO)C(=O)NCC(=O)N[C@@H](C)C(=O)N1CCC[C@H]1C(=O)N1CCC[C@H]1C(=O)N1CCC[C@H]1C(=O)N[C@@H](CO)C(=O)N[C@@H](CCCCN)C(N)=O [mt-348] (H-H[Aib]QGTFTSDYSKYLD[Aib]QAAKEFICWLMNGGPSSGAPPPSK-NH2)
% Relative activity at the Receptor for Glucagon (glucagon receptor; [3]): 8.2%
Glucagon Receptor % relative activity (glucagon receptor): 8.16%
% Relative activity at the Receptor for GIP (GIP receptor; [3]): 0.2%
GIP Receptor % relative activity (GIP receptor): 0.15%
% Relative activity at the Receptor for GLP-1 (GLP-1 receptor [1]; [3]): 149%
GLP-1 Receptor % relative activity (GLP-1 receptor [1]): 148.65%
EC50 (GLP-1 receptor [2]): 0.0037 nM

CC[C@H](C)[C@H](NC(=O)[C@H](CO)NC(=O)[C@H](Cc1ccc(O)cc1)NC(=O)[C@H](CC(=O)O)NC(=O)[C@H](CO)NC(=O)[C@@H](NC(=O)[C@H](Cc1ccccc1)NC(=O)[C@@H](NC(=O)CNC(=O)[C@H](CCC(N)=O)NC(=O)C(C)(C)NC(=O)[C@@H](N)Cc1c[nH]cn1)[C@@H](C)O)[C@@H](C)O)C(=O)N[C@@H](Cc1ccc(O)cc1)C(=O)N[C@@H](CC(C)C)C(=O)N[C@@H](CC(=O)O)C(=O)NC(C)(C)C(=O)N[C@@H](CCC(N)=O)C(=O)N[C@@H](C)C(=O)N[C@@H](C)C(=O)N[C@@H](CCCCN)C(=O)N[C@@H](CCC(=O)O)C(=O)N[C@@H](Cc1ccccc1)C(=O)N[C@H](C(=O)N[C@@H](CC(N)=O)C(=O)N[C@@H](Cc1c[nH]c2ccccc12)C(=O)N[C@@H](CC(C)C)C(=O)N[C@@H](CCSC)C(=O)N[C@@H](CC(N)=O)C(=O)NCC(=O)NCC(=O)N1CCC[C@H]1C(=O)N[C@@H](CO)C(=O)N[C@@H](CO)C(=O)NCC(=O)N[C@@H](C)C(=O)N1CCC[C@H]1C(=O)N1CCC[C@H]1C(=O)N1CCC[C@H]1C(=O)N[C@@H](CO)C(=O)N[C@@H](CCCCN)C(N)=O)C(C)C [mt-361] (H-H[Aib]QGTFTSDYSIYLD[Aib]QAAKEFVNWLMNGGPSSGAPPPSK-NH2)
Glucagon Receptor % relative activity (glucagon receptor): 3.61%
EC50 (glucagon receptor): 1.77 nM
GIP Receptor % relative activity (GIP receptor): 0.29%
EC50 (GIP receptor): 1.05 nM
GLP-1 Receptor % relative activity (GLP-1 receptor [1]): 226.35%
EC50 (GLP-1 receptor [2]): 0.0109 nM

CCCCCCCCCCCCCCCC(=O)NCCCC[C@H](NC(=O)[C@H](CO)NC(=O)[C@@H]1CCCN1C(=O)[C@@H]1CCCN1C(=O)[C@@H]1CCCN1C(=O)[C@H](C)NC(=O)CNC(=O)[C@H](CO)NC(=O)[C@H](CO)NC(=O)[C@@H]1CCCN1C(=O)CNC(=O)CNC(=O)[C@H](CC(N)=O)NC(=O)[C@H](CCSC)NC(=O)[C@H](CC(C)C)NC(=O)[C@H](Cc1c[nH]c2ccccc12)NC(=O)[C@H](CC(N)=O)NC(=O)[C@@H](NC(=O)[C@H](Cc1ccccc1)NC(=O)[C@H](CCC(=O)O)NC(=O)[C@H](CCCCN)NC(=O)[C@H](C)NC(=O)[C@H](C)NC(=O)[C@H](CCC(N)=O)NC(=O)C(C)(C)NC(=O)[C@H](CC(=O)O)NC(=O)[C@H](CC(C)C)NC(=O)[C@H](Cc1ccc(O)cc1)NC(=O)[C@@H](NC(=O)[C@H](CO)NC(=O)[C@H](Cc1ccc(O)cc1)NC(=O)[C@H](CC(=O)O)NC(=O)[C@H](CO)NC(=O)[C@@H](NC(=O)[C@H](Cc1ccccc1)NC(=O)[C@@H](NC(=O)CNC(=O)[C@H](CCC(N)=O)NC(=O)C(C)(C)NC(=O)[C@@H](N)Cc1c[nH]cn1)[C@@H](C)O)[C@@H](C)O)[C@@H](C)CC)C(C)C)C(N)=O [mt-362] (H-H[Aib]QGTFTSDYSIYLD[Aib]QAAKEFVNWLMNGGPSSGAPPPSK(Palmitoyl)-NH2; N-terminus assumed)
Glucagon Receptor % relative activity (glucagon receptor): 83.17%
EC50 (glucagon receptor): 0.0768 nM
GIP Receptor % relative activity (GIP receptor): 3.95%
EC50 (GIP receptor): 0.0782 nM
agonist activity at the GIP receptor (GIP receptor; text on Table 34): exceptionally potent activity
GLP-1 Receptor % relative activity (GLP-1 receptor [1]): 240.96%
EC50 (GLP-1 receptor [2]): 0.102 nM

CC[C@H](C)[C@H](NC(=O)[C@H](Cc1ccccc1)NC(=O)[C@H](CCC(=O)O)NC(=O)[C@H](CCCCN)NC(=O)[C@H](C)NC(=O)[C@H](C)NC(=O)[C@H](CCC(N)=O)NC(=O)[C@H](CCC(=O)O)NC(=O)[C@H](CC(=O)O)NC(=O)[C@H](CC(C)C)NC(=O)[C@H](Cc1ccc(O)cc1)NC(=O)[C@H](CCCCN)NC(=O)[C@H](CO)NC(=O)[C@H](Cc1ccc(O)cc1)NC(=O)[C@H](CC(=O)O)NC(=O)[C@H](CO)NC(=O)[C@@H](NC(=O)[C@H](Cc1ccccc1)NC(=O)[C@@H](NC(=O)CNC(=O)[C@H](CCC(N)=O)NC(=O)C(C)(C)NC(=O)[C@@H](N)Cc1c[nH]cn1)[C@@H](C)O)[C@@H](C)O)C(=O)N[C@@H](C)C(=O)N[C@@H](Cc1c[nH]c2ccccc12)C(=O)N[C@@H](CC(C)C)C(=O)N[C@@H](CCSC)C(=O)N[C@@H](CC(N)=O)C(=O)NCC(=O)NCC(=O)N1CCC[C@H]1C(=O)N[C@@H](CO)C(=O)N[C@@H](CO)C(=O)NCC(=O)N[C@@H](C)C(=O)N1CCC[C@H]1C(=O)N1CCC[C@H]1C(=O)N1CCC[C@H]1C(=O)N[C@@H](CO)C(=O)N[C@@H](CCCCN)C(N)=O [mt-363]
Glucagon Receptor % relative activity (glucagon receptor): 7.76%
EC50 (glucagon receptor): 0.823 nM
GIP Receptor % relative activity (GIP receptor): 0.73%
EC50 (GIP receptor): 0.425 nM
GLP-1 Receptor % relative activity (GLP-1 receptor [1]): 671.66%
EC50 (GLP-1 receptor [2]): 0.0037 nM

mt-349 (H[Aib]QGTFTSDYSKYLDEQAAKEFIC(PEG 40 kDa)WLMNGGPSSGAPPPSK(Myristoyl)-NH2; also: acylated with a C14 fatty acyl group, site not given here)
Glucagon Receptor % relative activity (glucagon receptor): 3.82%
EC50 (glucagon receptor; read-out: Glucagon Receptor EC50): 0.549 nM
GIP Receptor % relative activity (GIP receptor): 0.18%
EC50 (GIP receptor; read-out: GIP Receptor EC50): 1.99 nM
GLP-1 Receptor % relative activity (GLP-1 receptor [1]): 286.36%
EC50 (GLP-1 receptor [1]; read-out: GLP-1 Receptor EC50, cAMP induction, in vitro, as in Example 14): 0.0022 nM
